Data reported in the SangsterLogP compilation.

logP | SMILES
2.9 | CS(=O)(=O)c1nnnn1-c1cccc(C(F)(F)F)c1
1.4 | CS(=O)c1nnnn1-c1ccc([N+](=O)[O-])cc1 (stereo unspecified)
4.7 | CCCCCCCCS(=O)c1nnnn1-c1ccc([N+](=O)[O-])cc1 (stereo unspecified)
2.7 | CCCS(=O)(=O)c1nnnn1-c1ccc([N+](=O)[O-])cc1
2.5 | Cc1ccc(-n2nnnc2S(C)(=O)=O)cc1
3.5 | CCCCCCS(=O)c1nnnn1-c1ccc([N+](=O)[O-])cc1 (stereo unspecified)
2.7 | CN(C)c1ccc(-n2nnnc2S(C)(=O)=O)cc1
4.3 | CCCCCCS(=O)(=O)c1nnnn1-c1ccc([N+](=O)[O-])cc1
2.1 | CS(=O)(=O)c1nnnn1C1CCCCC1
1.6 | CC(=O)Oc1ccc(-n2nnnc2S(C)(=O)=O)cc1
2.1 | CS(=O)(=O)c1nnnn1Cc1ccc([N+](=O)[O-])cc1
